Reference: patent US20040002117A1 (priority 1998, published 2004)

How the values were obtained:
[1] = system: NFAT dephosphorylation by calcineurin in C1.7W2 T cells; experiment: ionomycin-induced NFAT dephosphorylation in C1.7W2 T cells, Western blot; type: cell-based, murine; conditions: 1 μM ionomycin 15 min
Experimental: For the dephosphorylation assay, C1.7W2 T cells were pretreated in Dulbecco's modified Eagle medium, supplemented with 10% fetal calf serum, 10 mM HEPES, and 2 mM glutamine, at 37 C. with INCA6 (5-40 μM) for 10 min, then stimulated for an additional 15 min with 1 μM ionomycin in the continued presence of inhibitor. Control incubations omitted INCA6, ionomycin, or both. DMSO was present at equal concentrations in all incubations. Cells were collected by centrifugation and lysed in Laemmli sample buffer. Samples were analyzed by SDS-polyacrylamide gel electrophoresis according to Laemmli (U K Laemmli (1970) Nature 227, 680-685) using a 6% separating gel, transferred to nitrocellulose membrane, and probed with an antiserum to NFAT1.

[2] = system: cytokine mRNAs in C1.7W2 T cells; experiment: RNase protection assay of cytokine mRNAs in C1.7W2 T cells stimulated with PMA and ionomycin; type: cell-based, murine
Experimental: The effects of INCA6 on transcription were examined in the case of several cytokine mRNAs that are known targets of calcineurin-NFAT signalling. C1.7W2 T cells were preincubated for 10 min. in medium alone, in medium containing INCA6, or in medium containing CsA and FK506, then stimulated under conditions that normally initiate signalling through the calcium-calmodulin-calcineurin-NFAT pathway. Cells in control samples that had not been pretreated with inhibitor were left unstimulated, or were stimulated for 45 min with 20 nM PMA alone, or with 20 nM PMA and 1 μM ionomycin. Cells in parallel samples that had been pretreated for 10 min with inhibitor were then further incubated for 45 min without stimulation or with PMA and ionomycin, in the continued presence of inhibitor. At the end of the incubation, cells were harvested and total cellular RNA was extracted using Ultraspec RNA-binding resin (Biotecx Laboratories). Levels of cytokine mRNAs were analyzed by RNase protection assays performed with RiboQuant multiprobe kits (Pharmingen) following the instructions of the manufacturer. Briefly, for each sample 10 μg of target RNA was hybridized overnight to a ^32P-labelled RNA probe that had been synthesized in vitro from a template set representing multiple murine cytokine mRNAs, and then the unhybridized probe and other single-stranded RNAs were digested with RNases. The protected RNAs were purified, and probes for the individual cytokine mRNAs were resolved on a denaturing 6% polyacrylamide gel. Transcript levels were quantified by autoradiography and by use of a phosphorimager (Molecular Dynamics). Probes for the individual cytokine transcripts were identified by the length of the respective protected fragments. The results are presented in FIGS. 14A to 14C, which are pictures of RNA gel autoradiograms. Data were corrected for minor variations in RNA loading by normalizing the data for each sample to the intensity of the signal for the housekeeping transcripts L32 and GAPDH (see lower panels of FIGS. 14A, 14B, and 14C).

[3] = system: nuclear import of NFAT in C1.7W2 T cells; experiment: NFAT1 immune staining assay, nuclear import in C1.7W2 T cells; type: cell-based, murine; conditions: INCA6 20 μM or 40 μM; CsA/FK506 1 μM/100 nM; 1 μM ionomycin 15 min
Experimental: For an immune staining assay, C1.7W2 T cells growing on coverslips in Dulbecco's modified Eagle medium, supplemented with 10% fetal calf serum, 10 mM HEPES, and 2 mM glutamine, at 37 C. were pretreated with medium alone, with INCA6 (20 μM or 40 μM), or with CsA/FK506 (1 μM/100 nM) for 10 min, then stimulated for an additional 15 min with 1 μM ionomycin, in medium alone or in the continued presence of inhibitor as appropriate. Medium was removed, and the cells were fixed, permeabilized, and stained using the anti-67.1 antiserum against NFAT1 (A Ho et al (1994) J Biol Chem 269, 28181-28186) and a fluorescent second antibody.

[4] = molecular target: T1, recombinant human calcineurin catalytic domain, calcineurin(2-347) (Homo sapiens, UniProt Q08209, L343A/M347D/Y341S); experiment: fluorescence polarization competition assay, displacement of OG-VIVIT from calcineurin; type: binding
T1 construct: GST (N, cleaved yes); made in house; host or cells: E. coli strain DH5α
T1 sequence (Q08209 2-347 Y341S/L343A/M347D): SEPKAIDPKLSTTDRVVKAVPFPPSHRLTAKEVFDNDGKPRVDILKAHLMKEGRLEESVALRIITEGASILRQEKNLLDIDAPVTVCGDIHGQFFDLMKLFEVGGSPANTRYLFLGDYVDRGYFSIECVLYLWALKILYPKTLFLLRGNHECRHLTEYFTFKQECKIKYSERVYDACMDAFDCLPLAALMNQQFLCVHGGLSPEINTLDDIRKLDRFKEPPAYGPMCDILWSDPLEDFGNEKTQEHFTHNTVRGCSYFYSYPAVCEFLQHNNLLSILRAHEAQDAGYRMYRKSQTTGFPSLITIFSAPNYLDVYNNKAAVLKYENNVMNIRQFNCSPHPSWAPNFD
Experimental: Samples were analyzed as described in the preceding paragraph, and the resulting polarization data were plotted against the concentration of unlabelled VIVIT peptide, as shown in FIG. 8B.
The library stocks were dissolved at a nominal concentration of 10 mM in DMSO, and formatted for convenient robotic transfer on 384-well plates at the Institute of Chemistry and Cell Biology, Harvard Medical School. To initiate the competition assay, 40 nl volumes were pin-transferred from each well of a library stock plate to the corresponding wells of an assay plate, utilizing a robotic device. After a minimum 10 min incubation at room temperature to allow the binding to reach equilibrium, fluorescence polarization data were collected employing an Analyst plate reader (Molecular Devices).
Stocks of candidate inhibitor compounds and their structural analogues were purchased from ChemBridge or Asinex. The structure and purity of individual compounds were verified by ^1H NMR, mass spectrometry, or thin-layer chromatography. […] INCA1, INCA2, and INCA6 can be represented generally as follows: […]

[5] = system: PMA-MAP kinase signalling pathway in C1.7W2 T cells; experiment: phosphorylation of p44/p42 MAP kinase in PMA-stimulated C1.7W2 T cells; type: cell-based, murine; conditions: INCA6 pretreatment; 20 nM PMA 15 min
Experimental: Dephosphorylation of NFAT is evident in the shift of the stained NFAT band the sample from cells that were stimulated with ionomycin in the absence of inhibitor (FIG. 12A, lane 2). […] Activation of the latter pathway was monitored by examining phosphorylation of p44/p42 MAP kinase. For this assay the cells were pretreated and incubated as for the NFAT dephosphorylation assay, except that stimulation was for 15 min with 20 nM PMA. Cells were collected by centrifugation, lysed in Laemmli sample buffer, and analyzed by Western blotting with an anti-phospho-p44/p42 MAP kinase antibody (Cell Signaling Technology).

[6] = molecular target: calcineurin (Homo sapiens, UniProt Q08209, L343A/M347D/Y341S); experiment: 1H NMR titration spectroscopy binding experiments; conditions: 10 μM compound, 20 μM calcineurin, 25° C., buffered D2O
Chain of calcineurin (Q08209 2-347 Y341S/L343A/M347D limits assumed): as the sequence (Q08209 2-347 Y341S/L343A/M347D) above
Experimental: T2-filtered ^1H NMR spectra were obtained on a Bruker Avance 600 instrument with CryoPhobe using low-power presaturation of residual water. Preacquisition delays included up to five spin echos to suppress fast-relaxing broad protein resonances and were times to yield in-phase signals for J-coupled spins. Chemical shifts were referenced to internal standard 5 μM 2,2-dimethylsilapentane-5-sulfonic acid (DSS).

With `O=C1C=CC(=O)C2=C1C1c3ccccc3C2c2ccccc21` [INCA6] the “blockade of NFAT dephosphorylation in cells” value (“blockade” below) ([1]; 10 μM INCA6) was “partial”, the “blockade” value ([1]; 20 μM INCA6) was “nearly complete” and the “blockade” value ([1]; 40 μM INCA6) was “total”. The “induction of GM-CSF mRNA” value ([2]; 20 μM INCA6, 20 nM PMA and 1 μM ionomycin 45 min) was “partially prevented”, the “induction of lymphotactin (Ltn), MIP1β, and MIP-1α mRNAs” value ([2]; 20 μM INCA6, PMA and ionomycin) was “partially blocked” and the “induction of TNFα mRNA” value ([2]; 20 μM or 40 μM INCA6, CsA/FK506, PMA and ionomycin) was “inhibited”. The “induction of GM-CSF mRNA” value ([2]; 40 μM INCA6, CsA/FK506 1 μM/100 nM, PMA and ionomycin 45 min) was “fully blocked”, the “induction of lymphotactin (Ltn), MIP1β, and MIP-1α mRNAs” value ([2]; 40 μM INCA6, CsA/FK506, PMA and ionomycin) was “fully blocked” and the “induction of IFNγ mRNA” value ([2]; INCA6, CsA/FK506, PMA and ionomycin) was “inhibited”. The “levels of TNFβ, RANTES, and IP-10 mRNAs” value ([2]; not downstream targets of NFAT) was “unaffected”, the “basal level of GM-CSF mRNA” value ([2]; unstimulated cells) was “not affected” and the “localization of NFAT immune staining in ionomycin-stimulated cells” value [3] was “localized to the cytoplasm”. The Ki [4] was 800 to 5000 nM, the “displacement of OG-VIVIT from calcineurin” value ([4]; at high concentrations, 1 μM calcineurin, 60 nM OG-VIVIT) was “complete” and the IC50 ([4]; calcineurin-VIVIT peptide interaction, read-out: Estimated IC50) was 17 µM. For the same compound, the “activation of the PMA-MAP kinase signalling pathway (phosphorylation of p44/p42 MAP kinase)” value [5] was “not blocked” and the “binding to calcineurin in the absence of VIVIT peptide” value [6] was “direct molecular interaction”.
